Experimental data: patent publication US20170307595A1, “METHODS AND DEVICES TO STUDY METABOLISM” (The General Hospital Corporation, priority 2014, published 2017)
pIC50: −log10 of the molar value.

Key:
rat primary hepatocytes [1] = experiment: Mass spectrometry of drug metabolism in single chamber device with hepatocytes alone; settings: from tegafur+uracil
Description: (§2) Tegafur, 5-FU, and Uracil concentrations in media were quantified using an LC/MS-MS 3200 QTRAP Hybrid Triple Quadrupole Linear Ion Trap mass spectrometer (AB SCIEX, Foster City, Calif.) coupled to a 1200 Series Binary LC System (Agilent Technologies, Santa Clara, Calif.). A standard solution of each analyte was directly infused into the mass spectrometer, which was operating under negative mode with the following settings: Curtain gas (CUR) at 30.0, collision gas (CAD) at 5, IonSpray Voltage (IS) at −4500.0, the temperature (TEM) of the turbo gas in the TurbolonSpray at 400° C. and both Ion Source Gases (GS1 and GS2) at 60.0. Using Analyst software (Version 1.5, AB Sciex), a ‘Compound Optimization’ routine was performed to identify multiple reaction monitoring (MRM) precursor/product ion transition pairs for each analyte that maximizes peak intensity. The tunable MS-specific parameters for the optimization were the declustering potential (DP), the entrance potential (EP), the collision energy (CE), as well as the collision cell exit potential (CXP).
(§3) MS data acquisition for each sample was achieved by injecting 10 μL, of media through a liquid chromatographic (LC) separation phase followed by simultaneous detection of all three MRM transitions, each with a dwell time of 500 ms. The LC method utilized a Synergy Hydro-RP (reverse phase) column (150 mm×2 mm inner 4 μm 80 Å particles; Phenomenex, Torrance, Calif.), which was kept at ambient temperature. The aqueous mobile phase A was HPLC grade water with 0.1% formic acid and the organic phase B was HPLC grade methanol with 0.1% formic acid. The elution gradient was set as: 0 minutes-3% B, 3 minutes-3% B, 12 minutes-95% B, 15 minutes-95% B, 18 minutes-3% B, and 25 minutes-3% B.

[2] = cited from earlier work; for Cmax: oral uptake of tegafur-uracil (UFT)
rat primary hepatocytes [3] = settings: 24 h, 100 μM
Description: as §2, §3

MCF-7 cells = experiment: MTT toxicity experiment in 96-well plates, MCF-7; format: cell-based, human
Procedure: (§1) Toxicity experiments were performed in 96-well plates. Briefly, 96-well plates were coated with 50 μg/mL fibronectin for 1 hour at 37° C. Freshly isolated rat hepatocytes and MCF-7 cells were seeded at 50,000 cells/well in 100 μL of media and incubated overnight at 37° C., 10% CO2. Hepatocytes were seeded in hepatocyte maintenance media while MCF-7 cells were seeded in DMEM. Media was replaced and cells were exposed to tegafur or 5-FU+Uracil in Williams E media at 37° C., 10% CO2. Uracil concentration was maintained at 100 μM, while 5-FU concentration varied. After 24 hours of exposure, media were removed and cells were incubated with 0.5 mg/mL MTT reagent for 2 hours. Media were removed from the wells and 100 μL DMSO was added to each well and mixed on a shaker for 10 minutes. The absorbance was measured at 570 nm and IC-50 values were obtained using Sigmaplot software with a sigmoidal 4-parameter fit.

[4] = tested on: MCF-7 cells co-cultured with rat primary hepatocytes; experiment: LDH release, hepatocyte/MCF-7 co-culture in two-chamber microfluidic device; format: cell-based, human; settings: MCF-7 exposure to 5-FU produced by metabolic conversion of tegafur, 24 hours
Description: Rat primary hepatocytes and human breast cancer cells (MCF-7) were co-cultured in the device of Example 1 to create a hepatocyte-cancer model for drug screening. In the two-chamber device, intercellular communication between hepatocytes and cancer cells is achieved without any flow within the devices. In the two-chamber device, both cell types were independently seeded into their respective chambers in the device using inlet ports on fibronectin-coated devices. Rat primary hepatocytes and MCF-7 cells were seeded into the first (bottom) and second (top) chambers, respectively. Control monocultures were seeded in a single chamber device. The co-culture model created provides a microenvironment with cells cultured in close proximity and relatively small volume. Co-culture of hepatocytes and MCF-7 cells was compared in 12-well plates against a two-chamber device. […]
LDH in the supernatant was evaluated using CytoTox 96 Non-Radioactive Cytotoxicity Assay (Promega Cat No. G1780). […]
At the end of incubation, 50 μL stop solution was added and absorbance measured at 490 nm.
LDH from culture supernatant is normalized as LDH from cultures exposed to 100 μM tegafur+100 μM uracil to LDH from cultures exposed to vehicle control. […] Percentage cell death was calculated as LDH in media/LDH in 10,000 MCF-7 cells.

Rat hepatocytes = experiment: MTT toxicity experiment in 96-well plates, rat hepatocytes; format: cell-based
Procedure: as §1

[5] = 100 μM, inferred from IC-50 values

| SMILES | temporal profile of 5-FU production (rat primary hepatocytes [1]) | half-life in circulation in the human body [2] | fraction of 5-FU produced cleared by DPD activity ([2]; human) | Cmax ([2]; human) | decrease of concentration within the media (rat primary hepatocytes [3]) | toxicity to MCF-7 cells at 100 μM (MCF-7 cells; [5]) | pIC50 (MCF-7 cells; Homo sapiens, MCF7, MCF-7, 24 hours exposure, MTT, uracil 100 μM where present) | MCF-7 cell death (LDH in media/LDH in 10,000 MCF-7 cells) [4] | toxicity to hepatocytes at 100 μM (Rat hepatocytes; [5]) | pIC50 (Rat hepatocytes; Hepatocyte, rat hepatocytes, 24 hours exposure, MTT, uracil 100 μM where present) |
| --- | --- | --- | --- | --- | --- | --- | --- | --- | --- | --- |
| O=c1[nH]cc(F)c(=O)[nH]1 [5-FU, 5-fluorouracil] | increase in production up to 8 hours and a subsequent decrease | 30 min | ~80% | 0.847 µM | – | – | – | – | – | – |
| O=c1[nH]c(=O)n(C2CCCO2)cc1F (stereo not drawn) [Tegafur] | – | – | – | 31.2 µM | ~75% | not toxic | 3.47 | 12.4±1.6% | not toxic | < 2.92 |
| O=c1cc[nH]c(=O)[nH]1 [uracil, Uracil] | – | – | – | – | ~75% | – | – | – | – | – |
